Test results as given in ChEMBL document CHEMBL1201862, “PubChem BioAssay data set” (2004).
Activity calls are given as the source filed them.

Assays:
[1] = biological target: T1, Zinc finger protein mex-5 (Caenorhabditis elegans, UniProt Q9XUB2); test: MEX-5/TCR-2 RNA interaction inhibitors, dose response, biochemical, C. elegans, fluorescence polarization (AID 1960)
T1 sequence (Q9XUB2 whole entry): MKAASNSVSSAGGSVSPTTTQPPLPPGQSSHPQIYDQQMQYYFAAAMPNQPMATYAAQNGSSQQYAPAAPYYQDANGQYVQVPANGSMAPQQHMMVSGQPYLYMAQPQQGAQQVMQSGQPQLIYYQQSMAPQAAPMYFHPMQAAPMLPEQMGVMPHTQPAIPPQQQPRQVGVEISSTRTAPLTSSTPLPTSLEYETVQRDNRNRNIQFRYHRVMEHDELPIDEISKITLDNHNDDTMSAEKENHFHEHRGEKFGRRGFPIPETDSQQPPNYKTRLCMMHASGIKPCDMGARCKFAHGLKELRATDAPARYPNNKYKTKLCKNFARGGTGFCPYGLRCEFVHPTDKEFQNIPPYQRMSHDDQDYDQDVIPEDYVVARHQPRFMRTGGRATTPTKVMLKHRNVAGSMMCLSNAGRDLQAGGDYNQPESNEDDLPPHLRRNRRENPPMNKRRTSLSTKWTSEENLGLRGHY

[2] = biological target: Luciferin 4-monooxygenase (Photinus pyralis, UniProt P08659); test: firefly luciferase enzyme inhibitors, dose response, biochemical, luminescence (AID 1891)
Chain of Luciferin 4-monooxygenase (P08659 whole entry): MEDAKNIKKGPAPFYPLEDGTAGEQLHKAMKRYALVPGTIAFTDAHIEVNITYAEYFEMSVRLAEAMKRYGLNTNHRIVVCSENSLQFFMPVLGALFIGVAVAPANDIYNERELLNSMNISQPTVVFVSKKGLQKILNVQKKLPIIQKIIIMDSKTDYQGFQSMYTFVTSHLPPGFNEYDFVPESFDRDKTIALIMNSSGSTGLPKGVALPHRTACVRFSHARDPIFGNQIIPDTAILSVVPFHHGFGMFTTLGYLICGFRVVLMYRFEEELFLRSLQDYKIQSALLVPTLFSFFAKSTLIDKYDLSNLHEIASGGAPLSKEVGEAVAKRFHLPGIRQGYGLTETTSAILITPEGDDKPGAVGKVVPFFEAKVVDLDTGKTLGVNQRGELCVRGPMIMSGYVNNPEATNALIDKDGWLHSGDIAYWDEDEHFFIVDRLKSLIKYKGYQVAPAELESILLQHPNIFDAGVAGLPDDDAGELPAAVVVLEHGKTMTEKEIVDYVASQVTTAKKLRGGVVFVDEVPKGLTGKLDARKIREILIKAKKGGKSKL

[3] = biological target: T2, Histone-lysine N-methyltransferase NSD2 (Homo sapiens, UniProt O96028); type: biochemical
T2 sequence (O96028 whole entry): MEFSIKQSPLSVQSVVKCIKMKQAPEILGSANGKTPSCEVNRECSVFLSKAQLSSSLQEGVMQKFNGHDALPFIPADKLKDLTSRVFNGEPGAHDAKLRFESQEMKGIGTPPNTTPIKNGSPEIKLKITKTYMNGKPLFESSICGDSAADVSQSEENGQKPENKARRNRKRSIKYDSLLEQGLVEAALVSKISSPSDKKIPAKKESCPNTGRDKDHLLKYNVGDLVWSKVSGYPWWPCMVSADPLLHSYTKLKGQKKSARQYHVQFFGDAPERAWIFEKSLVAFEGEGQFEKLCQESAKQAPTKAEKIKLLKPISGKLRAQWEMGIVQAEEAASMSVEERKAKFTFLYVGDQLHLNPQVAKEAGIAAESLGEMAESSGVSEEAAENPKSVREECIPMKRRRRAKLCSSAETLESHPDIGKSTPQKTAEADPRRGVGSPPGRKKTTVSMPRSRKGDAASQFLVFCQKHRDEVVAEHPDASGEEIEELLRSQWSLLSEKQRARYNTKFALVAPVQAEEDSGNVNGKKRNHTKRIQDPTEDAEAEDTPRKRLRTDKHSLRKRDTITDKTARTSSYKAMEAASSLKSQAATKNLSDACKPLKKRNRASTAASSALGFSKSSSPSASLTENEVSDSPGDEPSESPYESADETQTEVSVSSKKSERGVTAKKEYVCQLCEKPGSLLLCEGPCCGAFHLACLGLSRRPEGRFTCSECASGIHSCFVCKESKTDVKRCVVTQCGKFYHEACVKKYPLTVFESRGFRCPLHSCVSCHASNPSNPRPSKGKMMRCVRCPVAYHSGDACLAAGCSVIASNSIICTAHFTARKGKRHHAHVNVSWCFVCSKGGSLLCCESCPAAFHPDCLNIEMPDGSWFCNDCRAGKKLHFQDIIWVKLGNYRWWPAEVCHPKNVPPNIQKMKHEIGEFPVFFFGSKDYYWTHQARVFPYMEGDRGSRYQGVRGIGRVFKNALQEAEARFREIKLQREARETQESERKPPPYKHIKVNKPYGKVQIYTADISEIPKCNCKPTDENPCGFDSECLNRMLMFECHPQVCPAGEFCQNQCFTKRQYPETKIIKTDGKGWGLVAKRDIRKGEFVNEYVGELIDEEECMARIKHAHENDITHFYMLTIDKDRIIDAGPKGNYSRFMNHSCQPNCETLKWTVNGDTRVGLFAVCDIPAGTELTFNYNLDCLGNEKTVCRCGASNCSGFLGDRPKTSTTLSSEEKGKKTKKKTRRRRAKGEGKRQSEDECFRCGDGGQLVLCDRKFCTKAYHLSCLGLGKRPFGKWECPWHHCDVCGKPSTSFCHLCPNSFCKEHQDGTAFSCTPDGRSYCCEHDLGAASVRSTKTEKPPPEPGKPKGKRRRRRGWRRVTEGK

[4] = Escherichia coli growth inhibition, dose response, counter-screen for MEX-5/POS-1 RNA-binding inhibitor project, luminescence, NEB5alpha (AID 1959); type: functional
Large T antigen = Large T antigen (Simian virus 40, UniProt P03070); type: functional, Betapolyomavirus macacae;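 note: Confirmatory-stage PubChem screen for compounds that inhibit SV40 T antigen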
Chain of Large T antigen (P03070 whole entry): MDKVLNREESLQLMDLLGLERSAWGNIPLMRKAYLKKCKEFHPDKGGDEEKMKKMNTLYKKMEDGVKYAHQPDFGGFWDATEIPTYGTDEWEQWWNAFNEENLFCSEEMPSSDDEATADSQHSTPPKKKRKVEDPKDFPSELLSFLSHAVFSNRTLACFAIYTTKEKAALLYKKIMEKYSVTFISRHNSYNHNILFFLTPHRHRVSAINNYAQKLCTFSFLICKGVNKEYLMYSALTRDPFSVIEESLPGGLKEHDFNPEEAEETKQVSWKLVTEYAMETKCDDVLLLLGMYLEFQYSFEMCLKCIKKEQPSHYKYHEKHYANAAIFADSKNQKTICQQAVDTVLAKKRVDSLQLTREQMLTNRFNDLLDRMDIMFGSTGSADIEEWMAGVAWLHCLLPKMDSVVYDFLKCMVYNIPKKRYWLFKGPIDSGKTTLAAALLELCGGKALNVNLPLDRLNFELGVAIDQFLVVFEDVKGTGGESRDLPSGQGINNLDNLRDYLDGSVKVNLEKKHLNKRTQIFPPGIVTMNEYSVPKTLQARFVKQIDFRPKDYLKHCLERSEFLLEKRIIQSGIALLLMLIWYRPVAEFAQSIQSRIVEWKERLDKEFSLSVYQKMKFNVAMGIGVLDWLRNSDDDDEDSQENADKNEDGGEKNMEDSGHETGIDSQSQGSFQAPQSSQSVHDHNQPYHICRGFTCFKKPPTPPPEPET

[5] = Luminescence Cell-Based Dose Confirmation HTS to Identify Inhibitors of Platelet Dense Granule Release. [Related pubchem assays: 1663 (Primary HTS), 1678 (Summary of Project)]; type: functional
[6] = biological target: T3, RNA-binding protein pos-1 (Caenorhabditis elegans, UniProt G5EF15); test: inhibitors of POS-1/mex-3 RNA binding, dose response, biochemical, fluorescence polarization (AID 1964);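 note: purified POS-1 fused to maltose binding protein made in E. coli; potency of compounds blocking POS-1 binding to fluorescent RNA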
T3 sequence (G5EF15 whole entry): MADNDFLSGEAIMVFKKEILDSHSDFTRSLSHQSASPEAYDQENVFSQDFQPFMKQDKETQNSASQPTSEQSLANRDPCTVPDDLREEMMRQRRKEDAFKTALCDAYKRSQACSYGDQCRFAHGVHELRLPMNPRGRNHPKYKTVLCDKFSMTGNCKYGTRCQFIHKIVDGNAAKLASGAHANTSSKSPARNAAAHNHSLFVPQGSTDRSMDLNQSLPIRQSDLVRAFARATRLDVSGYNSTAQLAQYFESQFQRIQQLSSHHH

Procathepsin L = Procathepsin L (Homo sapiens, UniProt P07711); test: cathepsin L inhibitors, dose response, counter-screen for M1/M17 aminopeptidase inhibitor project, biochemical, QFRET, 1536-well (AID 2214)
Chain of Procathepsin L (P07711 whole entry): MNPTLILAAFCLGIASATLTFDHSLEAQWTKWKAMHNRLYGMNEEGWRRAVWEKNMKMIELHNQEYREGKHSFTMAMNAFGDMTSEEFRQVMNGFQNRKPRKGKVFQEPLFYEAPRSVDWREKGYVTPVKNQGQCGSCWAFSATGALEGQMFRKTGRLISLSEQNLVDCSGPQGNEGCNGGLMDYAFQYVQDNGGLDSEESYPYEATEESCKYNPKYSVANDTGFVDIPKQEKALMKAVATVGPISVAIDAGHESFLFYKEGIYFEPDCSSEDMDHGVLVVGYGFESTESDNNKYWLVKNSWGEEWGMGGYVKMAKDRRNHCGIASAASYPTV

Leucine aminopeptidase = biological target: T4, Leucine aminopeptidase (Plasmodium falciparum 3D7, UniProt Q8IL11); test: P. falciparum M17LAP inhibitors, primary screen, biochemical, fluorogenic H-Leu-NHMec substrate, 1536-well (AID 1619); type: functional
T4 sequence (Q8IL11 whole entry): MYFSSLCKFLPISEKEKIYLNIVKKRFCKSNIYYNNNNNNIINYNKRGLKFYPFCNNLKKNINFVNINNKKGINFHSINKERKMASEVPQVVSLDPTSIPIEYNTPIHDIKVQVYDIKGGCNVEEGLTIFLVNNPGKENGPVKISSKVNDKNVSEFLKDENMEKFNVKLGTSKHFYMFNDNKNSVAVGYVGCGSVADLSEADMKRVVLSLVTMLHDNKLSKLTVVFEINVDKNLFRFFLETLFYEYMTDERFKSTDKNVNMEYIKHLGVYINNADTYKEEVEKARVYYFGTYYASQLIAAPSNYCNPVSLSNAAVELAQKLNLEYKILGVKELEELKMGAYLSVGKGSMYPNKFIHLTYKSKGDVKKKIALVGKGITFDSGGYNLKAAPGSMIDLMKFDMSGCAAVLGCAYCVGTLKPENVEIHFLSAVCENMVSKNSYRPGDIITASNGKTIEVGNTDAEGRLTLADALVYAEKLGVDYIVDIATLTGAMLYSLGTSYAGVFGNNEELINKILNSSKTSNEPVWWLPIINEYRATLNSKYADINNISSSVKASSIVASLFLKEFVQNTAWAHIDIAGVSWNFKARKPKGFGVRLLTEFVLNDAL

Aspartyl aminopeptidase = Aspartyl aminopeptidase (Plasmodium falciparum 3D7, UniProt Q8I2J3); test: Counterscreen for inhibitors of M1 and M17 aminopeptidases: QFRET-based biochemical high throughput dose response assay for inhibitors of the Plasmodium falciparum M18 Aspartyl Aminopeptidase (PFM18AAP). [Related PubChem assays: 1619 (Screening assay (M17LAP inhibitors).), 1445 (Screening assay (M1AAP inhibitors).)]
Chain of Aspartyl aminopeptidase (Q8I2J3 whole entry): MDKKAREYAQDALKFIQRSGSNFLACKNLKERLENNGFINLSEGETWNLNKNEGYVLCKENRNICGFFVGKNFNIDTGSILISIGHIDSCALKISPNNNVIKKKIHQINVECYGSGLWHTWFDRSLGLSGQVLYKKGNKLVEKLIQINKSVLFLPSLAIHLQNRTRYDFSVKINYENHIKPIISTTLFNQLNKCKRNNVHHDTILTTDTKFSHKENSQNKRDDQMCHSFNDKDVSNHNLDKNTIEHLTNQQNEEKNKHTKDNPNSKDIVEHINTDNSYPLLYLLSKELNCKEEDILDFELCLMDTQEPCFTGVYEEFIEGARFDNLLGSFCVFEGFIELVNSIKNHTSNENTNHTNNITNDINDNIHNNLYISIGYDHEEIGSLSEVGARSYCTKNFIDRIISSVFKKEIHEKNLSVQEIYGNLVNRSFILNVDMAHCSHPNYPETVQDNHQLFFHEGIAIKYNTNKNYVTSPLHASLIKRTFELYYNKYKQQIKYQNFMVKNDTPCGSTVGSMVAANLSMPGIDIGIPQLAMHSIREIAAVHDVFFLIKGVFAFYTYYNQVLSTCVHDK

Bcl-2-related protein A1 [7] = biological target: T5, Bcl-2-related protein A1 (Mus musculus, UniProt Q07440); test: Bfl-1 binding inhibitors, SAR follow-up, biochemical, fluorescence polarization (AID 1070)
T5 sequence (Q07440 whole entry): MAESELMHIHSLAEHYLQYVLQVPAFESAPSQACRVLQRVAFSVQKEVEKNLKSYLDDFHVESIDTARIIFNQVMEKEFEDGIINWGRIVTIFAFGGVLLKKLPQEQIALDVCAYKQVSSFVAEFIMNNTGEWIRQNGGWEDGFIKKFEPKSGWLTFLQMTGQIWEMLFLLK

[8] = biological target: Glyceraldehyde-3-phosphate dehydrogenase (Homo sapiens, UniProt P04406)
Chain of Glyceraldehyde-3-phosphate dehydrogenase (P04406 whole entry): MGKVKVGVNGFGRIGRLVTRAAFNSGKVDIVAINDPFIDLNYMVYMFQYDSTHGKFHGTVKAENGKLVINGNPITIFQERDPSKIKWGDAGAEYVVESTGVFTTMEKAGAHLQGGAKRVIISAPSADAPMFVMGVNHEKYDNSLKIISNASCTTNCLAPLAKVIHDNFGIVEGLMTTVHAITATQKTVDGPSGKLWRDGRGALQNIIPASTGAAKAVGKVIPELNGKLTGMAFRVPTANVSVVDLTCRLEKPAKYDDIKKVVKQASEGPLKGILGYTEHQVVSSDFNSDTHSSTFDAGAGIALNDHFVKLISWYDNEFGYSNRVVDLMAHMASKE

Bcl-2-related protein A1 [9] = biological target: T5, Bcl-2-related protein A1; test: Bfl-1 inhibitors blocking BH3 peptide binding, confirmation, biochemical, TR-FRET, mouse Bfl-1 (AID 621);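 note: TR-FRET binding of GST-Bfl-1 to FITC-labelled Bid peptide via terbium antibody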
[10] = biological target: Sphingosine 1-phosphate receptor 2 (Homo sapiens, UniProt O95136); test: Dose Response Cell Based Assay for Agonists of the S1P2 Receptor. [Related pubchem assays: 729, 736, 843 ]; type: functional
Chain of Sphingosine 1-phosphate receptor 2 (O95136 whole entry): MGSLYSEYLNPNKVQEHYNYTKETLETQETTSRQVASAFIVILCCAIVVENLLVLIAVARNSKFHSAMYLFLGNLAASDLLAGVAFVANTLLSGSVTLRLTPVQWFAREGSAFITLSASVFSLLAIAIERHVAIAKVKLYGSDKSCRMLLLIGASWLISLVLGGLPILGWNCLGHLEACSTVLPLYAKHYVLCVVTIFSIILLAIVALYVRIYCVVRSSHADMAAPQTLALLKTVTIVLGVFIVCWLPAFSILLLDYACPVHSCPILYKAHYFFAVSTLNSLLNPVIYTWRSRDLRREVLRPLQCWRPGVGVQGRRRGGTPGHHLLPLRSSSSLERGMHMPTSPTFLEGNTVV

[11] = biological target: Serine/threonine-protein phosphatase PP1-alpha catalytic subunit (Homo sapiens, UniProt P62136); test: PP1 phosphatase inhibitors, dose response, biochemical, fluorescence (AID 2394)
Chain of Serine/threonine-protein phosphatase PP1-alpha catalytic subunit (P62136 whole entry): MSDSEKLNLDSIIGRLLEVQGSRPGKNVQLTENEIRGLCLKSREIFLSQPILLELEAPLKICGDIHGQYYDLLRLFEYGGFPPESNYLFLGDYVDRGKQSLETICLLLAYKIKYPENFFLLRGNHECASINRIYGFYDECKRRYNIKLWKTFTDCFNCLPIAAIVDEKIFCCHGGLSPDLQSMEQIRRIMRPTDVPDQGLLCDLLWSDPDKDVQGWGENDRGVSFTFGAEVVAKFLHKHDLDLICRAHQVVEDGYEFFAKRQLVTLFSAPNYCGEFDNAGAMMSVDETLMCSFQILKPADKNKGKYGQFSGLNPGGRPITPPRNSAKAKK

[12] = growth suppression of beta-catenin-knockout colon cells, dose response, cell-based, HCT116, human colon tumor (AID 1045); type: functional;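 note: HCT116 colon tumor cells with beta catenin knocked out; cells exposed to compound for 60 hours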
[13] = biological target: Serine/threonine-protein phosphatase (Homo sapiens, UniProt Q9BPW0); test: PP5 phosphatase inhibitors, dose response, biochemical, fluorescence (AID 2395)
Chain of Serine/threonine-protein phosphatase (Q9BPW0 whole entry): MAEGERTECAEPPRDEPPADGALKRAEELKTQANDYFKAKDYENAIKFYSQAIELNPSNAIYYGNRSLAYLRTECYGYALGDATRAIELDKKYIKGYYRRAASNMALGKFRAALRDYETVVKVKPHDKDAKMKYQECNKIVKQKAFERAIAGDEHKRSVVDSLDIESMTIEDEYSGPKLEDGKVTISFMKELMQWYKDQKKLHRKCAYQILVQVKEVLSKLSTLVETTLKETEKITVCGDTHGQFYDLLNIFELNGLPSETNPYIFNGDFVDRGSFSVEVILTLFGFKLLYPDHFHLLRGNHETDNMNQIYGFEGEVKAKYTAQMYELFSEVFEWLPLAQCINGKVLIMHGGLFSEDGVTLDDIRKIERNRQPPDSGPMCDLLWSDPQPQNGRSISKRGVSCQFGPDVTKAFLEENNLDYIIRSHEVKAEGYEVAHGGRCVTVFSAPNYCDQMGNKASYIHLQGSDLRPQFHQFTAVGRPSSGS

[14] = growth suppression of PTEN-null colon cells, dose response, cell-based, HCT116 PTEN knockout (AID 1047); type: functional;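 note: HCT116 colon tumor cells with PTEN knocked out; cells exposed to compound for 60 hours before readout; potency for loss of cell viability measured by luminescence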
Protein RecA = biological target: T6, Protein RecA (Mycobacterium tuberculosis, UniProt P9WHJ3); test: Fluorescence Cell-Free Homogeneous Dose Retest to Identify Inhibitors of RecA-Intein Splicing Activity. [Related pubchem assays (depositor defined):AID2097, AID2223, AID489010, AID492950]; type: functional
T6 sequence (P9WHJ3 whole entry): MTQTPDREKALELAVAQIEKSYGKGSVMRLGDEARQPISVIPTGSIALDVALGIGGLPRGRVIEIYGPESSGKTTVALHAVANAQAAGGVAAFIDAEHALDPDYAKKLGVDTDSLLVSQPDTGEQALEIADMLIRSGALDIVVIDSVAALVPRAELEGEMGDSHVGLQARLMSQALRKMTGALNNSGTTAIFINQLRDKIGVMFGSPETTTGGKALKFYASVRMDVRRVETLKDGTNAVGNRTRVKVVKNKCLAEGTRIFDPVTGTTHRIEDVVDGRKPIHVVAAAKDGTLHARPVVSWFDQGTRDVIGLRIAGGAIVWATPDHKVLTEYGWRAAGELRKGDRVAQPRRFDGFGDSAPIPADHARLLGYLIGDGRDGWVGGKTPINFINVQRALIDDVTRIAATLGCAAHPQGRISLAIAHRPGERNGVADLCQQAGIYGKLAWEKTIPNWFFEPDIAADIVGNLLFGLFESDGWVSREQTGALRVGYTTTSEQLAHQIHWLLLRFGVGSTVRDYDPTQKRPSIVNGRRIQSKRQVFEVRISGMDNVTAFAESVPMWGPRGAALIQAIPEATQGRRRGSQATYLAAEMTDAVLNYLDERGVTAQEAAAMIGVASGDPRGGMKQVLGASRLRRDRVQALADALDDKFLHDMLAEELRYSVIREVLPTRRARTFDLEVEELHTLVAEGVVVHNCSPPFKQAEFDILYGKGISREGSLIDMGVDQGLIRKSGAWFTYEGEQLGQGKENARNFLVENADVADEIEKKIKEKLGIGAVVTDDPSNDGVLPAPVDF

O=C(/C=C/c1ccc(O)c(O)c1)c1ccccc1O
EC50 [1]: 42.3 µM (active) | EC50 [2]: 0.437 µM (active) | AC50 [3]: > 20 µM (inactive) | EC50 [4]: 19.5 µM (active) | IC50 (Large T antigen): 17.4 µM (active) | EC50 [5]: 2.23 µM (active) | EC50 [6]: > 300 µM (not active)

Cc1ccc(Nc2nnc(SCc3cc(=O)n4ccsc4n3)s2)c(C)c1
IC50 (Procathepsin L): > 59.6 µM (not active) | IC50 (Leucine aminopeptidase): 6.49 µM (active) | IC50 (Aspartyl aminopeptidase): > 73.5 µM (not active)

CC1C(=O)NCCN1C1=C(Cl)C(=O)N(c2ccc(Cl)c(Cl)c2)C1=O (centres undefined)
IC50 (Bcl-2-related protein A1 [7]): 5.63 µM (active) | IC50 [8]: > 50 µM (inconclusive) | IC50 (Bcl-2-related protein A1 [9]): 2.03 µM (active)

CC(C)CNC(=O)c1c(N)n(Cc2ccc3c(c2)OCO3)c2nc3ccccc3nc12
EC50 [10]: 2.61 µM (active) | IC50 [11]: > 67 µM (not active) | EC50 [12]: 16.3 µM (active) | IC50 [13]: 17.9 µM (not active) | EC50 [14]: 11.9 µM (active) | EC50 (Protein RecA): > 380 µM (inconclusive)
